Experimental data from ChEMBL document CHEMBL3988442, “University of Dundee, Small-Polar-MMV Screening Library” (2021).

Columns and labels:
[1] = microbe, parasite or virus in culture; details: Mycobacterium tuberculosis, 96 h, read-out: pIC50 (converted)
[2] = microbe, parasite or virus in culture; details: Mycobacterium tuberculosis, 72 h, read-out: pIC50 (converted)

Row | SMILES | IC50 [1] [µM] | IC50 [2] [µM]
1 | Cc1ccc(C2CCCN2CCS(C)(=O)=O)s1 (stereo not drawn) | > 501 | 205
2 | Cc1nnc(SCCC(=O)N(C)Cc2c(F)cccc2Cl)[nH]1 | > 50.1 | > 50.1
3 | Cc1cc(C)c(CN2CCOC(CN)C2)cc1C (stereo not drawn) | 259 | 183
4 | COC(=O)CS(=O)(=O)c1ccc(C)c(Cl)c1 | > 501 | 249
5 | CCC(O)CNc1ccc(-c2nc(CC(C)C)no2)cn1 (stereo not drawn) | 26.7 | 44.9
6 | CC(NCc1cccc2c1OCCO2)c1ccncc1 (stereo not drawn) | 153 | 99.1
7 | CCC(N)c1cnn(CC)c1 (stereo not drawn) | > 501 | > 501
8 | CC(CN)c1nc(-c2ccccc2)no1 (stereo not drawn) | 410 | 179
9 | COCC(=O)NCc1noc(-c2cccc(C)c2)n1 | 160 | 265
10 | CCC1CN(C)c2ccccc2CN1CCC(=O)NC (stereo not drawn) | > 501 | > 501
11 | COc1cccc(S(=O)(=O)CCN(C)CCO)c1 | 352 | 109
12 | Cc1cccc(C(=O)NCC(C)N2CCCC2)n1 (stereo not drawn) | > 501 | 306
13 | NCCc1nc(-c2cccc(Cl)c2)no1 | 190 | 122
14 | COC[C@@H]1CN(C)C(=O)[C@@H]2CCN(Cc3ccco3)CC[C@H]12 | > 50.1 | > 50.1
15 | N#Cc1ccccc1CN1CCCC1CO (stereo not drawn) | 176 | 129
16 | CCSc1nc2ccccc2c(=O)n1CCCO | 278 | 181
17 | CCCN1CCC(Nc2cc(-c3ccccc3)ccc2OC)CC1 | 32.9 | 23.4
18 | O=C1CCC2(CNC(=O)C3CC3)CCCC=C2N1 (stereo not drawn) | > 501 | > 501
19 | COc1ccccc1C(N)c1ccccn1 (stereo not drawn) | 453 | 233
20 | CNC(=O)CSCc1nc(-c2ccccc2C)no1 | 156 | 134

Row | SMILES | IC50 [1] [µM] | IC50 [2] [µM]
21 | CC1=CC(=O)N(Cc2ccccc2)C1=O | 81.5 | 49.8
22 | COc1ccc(CCN)cc1F | 247 | 304
23 | COc1ccc(CN2CCCC(Nc3cccc(F)c3)C2)cc1O (stereo not drawn) | 16.5 | 11
24 | CCc1nc(CCN)cs1 | 152 | 113
25 | Cc1nn(CCO)c(NCc2cccc(F)c2)c1C | > 501 | > 501
26 | Cc1cccc(-c2ccc(C(=O)N3CCSCC3)c(=O)[nH]2)c1 | > 50.1 | 36.1
27 | CCOc1ccc(Cl)cc1CNCCNCC(C)O (stereo not drawn) | 30.7 | 254
28 | COc1ccc(-c2nc(CN(C)Cc3nncn3C)c(C)o2)c(C)c1C | 10.1 | 42.9
29 | C=C(C)COC(=O)c1ccc(-n2cncn2)cc1C | 279 | 182
30 | CC(C)c1cccc(S(=O)(=O)NCCN)c1 | > 501 | 219
31 | O=C(Cc1ccc(-n2cccn2)cc1)N1CCCC(n2cccn2)C1 (stereo not drawn) | > 50.1 | > 50.1
32 | Cc1cc(C(=O)N2CCN(Cc3ccsc3)CC2)[nH]n1 | 156 | 90.5
33 | O=C(Cn1cccn1)N1CCC(Cn2cc(-c3ccsc3)nn2)CC1 | > 50.1 | > 50.1
34 | CN1CCN(C(=O)c2cnsn2)c2ccccc21 | > 501 | > 501
35 | c1cnc(-c2nc(C3CCOC3)no2)cn1 (stereo not drawn) | > 50.1 | > 50.1
36 | Cc1ccc(F)c(CN2CC[C@H](N)C2)c1 | 225 | 213
37 | CN1CCC(Cc2cc(Nc3ncccn3)ncn2)CC1 | > 50.1 | > 50.1
38 | Cc1nc(Nc2ncccn2)cc(C2CN(C(=O)c3cccnc3)C2)n1 | > 50.1 | > 50.1
39 | C=C(C)CCOC(=O)c1ccc(CS(C)(=O)=O)cc1 | 258 | 275
